Assay results published in patent US8771682B2, “Methods and compositions for reducing interleukin-4 or interleukin-13 signaling” (Technische Universtität Dresden, priority 2011, dated 2014).
Entries after “also recorded” stand apart in the source; their conditions may differ.

Assays:
Type in all cases: cell-based, human
[1] = tested on: type II IL-4 signaling (IL-4/IL-13, Stat6 phosphorylation); experiment: Stat6 phosphorylation by quantitative immunoblotting in Stat6-transfected HEK293T cells stimulated with IL-4 or IL-13 (type II signaling); details: IL-4 3 ng/ml or IL-13 10 ng/ml, Dynasore 320 μmol/l, EHT-1864 50 μmol/l, IPA-3 10 μmol/l, FIG. 9
Description: It was verified by RT-PCR that HEK293T (human epithelial cell line—ATCC number CRL-11268) cells expressed the endogenous type II IL-4 pathway components IL4-Ra, IL-13Ra1, Jak1, while Stat6 and the type I specific components IL-2Rg, and Jak3 were absent (FIG. 4 and FIG. 5). In HEK cells ectopically expressing human Stat6 under the cytomegalovirus promoter (pcDNA3.1-GS-Stat6, Gene Storm, Invitrogen) and stimulated with either IL-4 or IL-13, phosphorylated Stat6 became detectable by immunoblotting (FIG. 6). Co-transfected RNAi (Sigma Aldrich, #EHU-029151) mediated knockdown of the endogenous IL-13Ra1 subunit verified that this signaling activity was mediated by the type II receptor pathway (FIG. 7). Ectopically Stat6 is functional.
To test whether IL-4 signaling depends on compounds inhibiting Rac/Pak dependent endocytosis, HEK293T cells were transfected with a plasmid encoding human Stat6. Following transfection, cells were grown overnight, treated with inhibitors and/or ligands, lysed, proteins separated electrophoretically under denaturing conditions, and phosphorylation of Stat6 detected by quantitative immunoblotting (Antibodies from Santa Cruz, anti-STAT6 (M-20) #sc-981 and anti-phospho-STAT6 (py641.18, #sc-136019; FIG. 9).
If not indicated otherwise, human recombinant IL-4 (Invitrogen, #PHC0045) was used at 3 ng/ml, and human recombinant IL-13 (Cell Signaling, #8905) was used at 10 ng/ml.
If not indicated otherwise, the dynamin inhibitor Dynasore (Sigma Aldrich, #D7693) was used at 320 μmol/l, the Rac1 inhibitor EHT-1864 (Sigma Aldrich, 41E-1657) at 50 μmol/l, and the PAK inhibitor IPA-3 (Sigma Aldrich, #I-2285) at 10 μmol/l.

[2] = tested on: endogenous type I signaling (IL-4R, Stat6 phosphorylation) in Jurkat T lymphocytic leukemia cell line; experiment: pStat6 levels, endogenous type I IL-4 signaling in Jurkat cells; details: 10 min pre-incubation with inhibitor plus 30 min ligand and inhibitor, chlorpromazine 2.8 μmol/l
Method: In a second series of experiments the inventors assayed the type I IL-4R. The pStat6 levels were determined under the following conditions: • without ligand stimulation • incubation with IL-4 ligand for 30 min • 10 min pre-incubation with inhibitor plus 30 min incubation with ligand and inhibitor • 40 min pre-incubation with inhibitor followed by removal of the inhibitor and 30 min incubation with ligand (washout).
To assay endogenous type I signaling was analyzed in the Jurkat T lymphocytic leukemia cell line (ATCC TIB 152) showing a specific sensitivity to Rac/Pak dependent endocytosis.

[3] = tested on: transferrin uptake in HEK cells expressing endogenous transferrin receptor; experiment: Uptake of fluorescent transferrin (Alexa568-transferrin) by confocal fluorescence microscopy; details: 25 μg/ml Alexa568-transferrin, compounds at working concentration (Dynasore 320 μmol/l), FIG. 14
Method: The inventors verified that the used compounds at the working concentration indeed blocked endocytosis by monitoring the uptake of 25 μg/ml fluorescent transferrin (Alexa568-transferrin, Invitrogen) with confocal fluorescence microscopy (FIG. 14). The experiment was performed with (untransformed) HEK-cells expressing endogenous transferrin receptor. As expected, dynamin dependent endocytosis could be blocked with Dynasore. […] As expected, inhibiting Rac1 and Pak 1/2 dependent actin polymerization by EHT-1864 and IPA-3 had no effect on transferrin uptake (FIG. 14).

[4] = tested on: loading of the signaling endosome with IL4-A647 in HEK293T transfected with IL-4Ra, IL-2Rg-eGFP and JAK3; experiment: Translocation of labeled IL-4 (IL4-A647) into signaling endosomes, co-localization with IL-2Rg-eGFP
Method: The inventors created a fluorescently labeled IL-4 ligand (Alexa647—succinimidylester, Invitrogen)—further referred to as IL4-A647.
HEK293T were transfected with IL-4Ra, IL-2Rg-eGFP, and JAK3 as described above and cultured under standard culture conditions. The cells were incubated at 4° C. with the inhibitor (optional) and stained with 50 nmol/I IL4-A647 and washed with medium (DMEM without phenole red). The temperature release from 0° C. to 20° C. was defined as a reference point for the onset of endocytosis. Thenceforth, co-localization of eGFP with A647 was measured.
Applying the fluorescent IL-4-A647 under conditions in which endocytosis is suppressed (4° C.) allows to observe the kinetics of the translocation into the signaling endosomes. The endocytosis starts with a temperature release. FIG. 15 illustrates that in an initial state (timepoint 0 min, IL4-A647 channel) the plasma membrane of the IL-4Ra chain expressing cells is homogeneously stained. However, after several minutes, the A647 fluorescence a punctuated pattern appears in the IL4-A647 channel showing a high degree of colocalization to the GFP channel (FIG. 16). Association of the stained endosomes with the actin cortex and the plasma membrane is apparent in central confocal cross-sections through a central part of the cell (FIG. 17). […] Such a readout could therefore be used to detect IL-4 translocation inhibitors.

| Compound | Stat6 phosphorylation level [1] | IL-4 signaling (pStat6 level) [2] | transferrin uptake [3] | transport of the Alexa647-labeled ligand ([4]; 50 μmol/l EHT-1864, bottom membrane, 21 min after temperature release, FIG. 18) | uptake of the labeled ligand ([4]; 50 μmol/l EHT-1864, central cross-section, 22 min after temperature release, FIG. 19) | loading of the signaling endosome with IL4-A647 ([4]; pre-incubation with 50 μmol/l EHT-1864, for up to 20 minutes after temperature release, FIG. 18) | IL-4 signaling (pStat6 level) ([2]; listed as Chlorpromazine) | transferrin uptake ([3]; listed as Chlorpromazine) |
| --- | --- | --- | --- | --- | --- | --- | --- | --- |
| O=c1cc(CN2CCOCC2)occ1OCCCCCSc1ccnc2cc(C(F)(F)F)ccc12 (racemic) [EHT-1864, 5-(5-(7-(Trifluoromethyl)quinolin-4-ylthio)pentyloxy)-2-(morpholinomethyl)-4H-pyran-4-one] | reduced the Stat6 phosphorylation level | significantly reduced | no effect | reduced | reduced uptake | reduced significantly |  |  |
| O=C(N/N=C/c1ccc(O)c(O)c1)c1cc2ccccc2cc1O [Dynasore] | reduced the Stat6 phosphorylation level; also recorded: prevented Stat6 phosphorylation | significantly reduced | blocked transferrin endocytosis; also recorded: inhibit transferrin uptake |  |  |  |  |  |
| Oc1ccc2ccccc2c1SSc1c(O)ccc2ccccc12 [IPA-3, 1,1′-Dithiodi-2-naphthtol] | reduced the Stat6 phosphorylation level | significantly reduced | no effect |  |  |  |  |  |
| CN(C)CCCN1c2ccccc2Sc2ccc(Cl)cc21 [chlorpromazine] |  | no effect; also recorded: not IL-4 signaling | blocked transferrin uptake |  |  |  | no inhibitory effect | inhibit transferrin uptake |
